ChEMBL document CHEMBL3832761, “MMV Pathogen Box Bioactivity Data” (2017)
≈ marks a conversion by molar mass, not a printed value.

Experiments:
Format in all cases: functional
[1] = test system: Mycobacterium tuberculosis; assay: AntiMycobacterium tuberculosis activity Non-Replicating form: Average MIC90 (uM)
[2] = test system: Mycobacterium tuberculosis; assay: AntiMycobacterium tuberculosis activity 1-week GAST/Fe MIC (uM); details: 168 h
[3] = test system: Mycobacterium tuberculosis; assay: AntiMycobacterium tuberculosis activity 2-week GAST/Fe MIC (uM); details: 336 h
[4] = test system: Mycobacterium tuberculosis; assay: AntiMycobacterium tuberculosis activity 1-week 7H9/ADC/Tw MIC (uM); details: 168 h
[5] = test system: Mycobacterium tuberculosis; assay: AntiMycobacterium tuberculosis activity 2-week 7H9/ADC/Tw MIC (uM); details: 336 h
[6] = test system: Mycobacterium tuberculosis; assay: AntiMycobacterium tuberculosis activity 2-week Alamar Blue 7H9/ADC/Tw MIC (uM); details: 336 h
[7] = test system: Mycobacterium tuberculosis; assay: AntiMycobacterium tuberculosis activity 1-week 7H9/glucose/BSA/Tx MIC (uM); details: 168 h
[8] = test system: Mycobacterium tuberculosis; assay: AntiMycobacterium tuberculosis activity 2-week 7H9/glucose/BSA/Tx MIC (uM); details: 336 h
[9] = test system: Mycobacterium tuberculosis; assay: AntiMycobacterium tuberculosis activity 1-week 7H9/DPPC/cholesterol/BSA/Tx MIC (uM); details: 168 h
[10] = test system: Mycobacterium tuberculosis; assay: AntiMycobacterium tuberculosis activity 2-week 7H9/DPPC/cholesterol/BSA/Tx MIC (uM); details: 336 h
[11] = test system: Mycobacterium tuberculosis; assay: AntiMycobacterium tuberculosis activity 1-week 7H9/cholesterol/BSA/Tx MIC (uM); details: 168 h
[12] = test system: Mycobacterium tuberculosis; assay: AntiMycobacterium tuberculosis activity 2-week Alamar Blue 7H9/cholesterol/BSA/Tx MIC (uM); details: 336 h
[13] = test system: Mycobacterium tuberculosis; assay: (§1) AntiMycobacterium tuberculosis activity day 10 in 7H9/2.5mM butyrate/pH6/0.1mM nitrite MIC90 (uM); details: 240 h
[14] = test system: Mycobacterium tuberculosis; assay: AntiMycobacterium tuberculosis activity day 21 in 7H9/2.5mM butyrate/pH6/0.1mM nitrite MIC90 (uM); details: 504 h
[15] = test system: Mycobacterium tuberculosis; assay: as §1; details: 240 h; remark: listed apart in the source
[16] = test system: Mycobacterium tuberculosis; assay: AntiMycobacterium tuberculosis activity day 21 MIC99 in 7H9/2.5mM butyrate/pH6/0.1mM nitrite MIC99 (uM); details: 504 h
[17] = test system: Mycobacterium tuberculosis; assay: AntiMycobacterium tuberculosis activity Replicating form: Average MIC90 (uM)
HepG2 = assay: HepG2 CC50 (uM) Cytotoxicity; details: Homo sapiens

SMILES | MIC90 [1] [µM] | MIC [2] [µM] | MIC [3] [µM] | MIC [4] [µM] | MIC [5] [µM] | MIC [6] [µM] | MIC [7] [µM] | MIC [8] [µM] | MIC [9] [µM] | MIC [10] [µM] | MIC [11] [µM] | MIC [12] [µM] | MIC90 [13] [µM] | MIC90 [14] [µM] | MIC90 [15] [µM] | MIC [16] [µM] | MIC90 [17] [µM] | CC50 (HepG2) [µM]
CCc1nc2ccccc2n1CC(O)COc1cc(C)ccc1Cl (configuration not stated) | 70 (≈ 24.1 µg/mL) | 12.5 (≈ 4.31 µg/mL) | 12.5 (≈ 4.31 µg/mL) | 37 (≈ 12.8 µg/mL) | ≥ 50 | 37 (≈ 12.8 µg/mL) | 37 (≈ 12.8 µg/mL) | ≥ 50 | 12.5 (≈ 4.31 µg/mL) | 25 (≈ 8.62 µg/mL) | 9.4 (≈ 3.24 µg/mL) | 9.4 (≈ 3.24 µg/mL) | 25 (≈ 8.62 µg/mL) | 50 (≈ 17.2 µg/mL) | > 50 | > 50 | 78 (≈ 26.9 µg/mL) | 43.2
COC(=O)c1c(NC(=O)c2c(F)c(F)c(F)c(F)c2F)sc2c1CCCCC2 | 3.8 (≈ 1.59 µg/mL) | 0.78 (≈ 0.327 µg/mL) | 0.78 (≈ 0.327 µg/mL) | 1.2 (≈ 0.503 µg/mL) | 2.3 (≈ 0.965 µg/mL) | 1.56 (≈ 0.654 µg/mL) | 0.78 (≈ 0.327 µg/mL) | 1.2 (≈ 0.503 µg/mL) | 0.6 (≈ 0.252 µg/mL) | 1.56 (≈ 0.654 µg/mL) | 0.6 (≈ 0.252 µg/mL) | 1.56 (≈ 0.654 µg/mL) | 1.5 (≈ 0.629 µg/mL) | 3.1 (≈ 1.3 µg/mL) | 3.1 (≈ 1.3 µg/mL) | 3.1 (≈ 1.3 µg/mL) | 0.86 (≈ 0.361 µg/mL) | 7.5
O=C(NCc1cc(Cl)cc(Cl)c1)c1c(C(F)(F)F)nc2ccccn12 | 2.93 (≈ 1.14 µg/mL) | 0.1 (≈ 0.0388 µg/mL) | 0.39 (≈ 0.151 µg/mL) | 12.5 (≈ 4.85 µg/mL) | 37 (≈ 14.4 µg/mL) | 12.5 (≈ 4.85 µg/mL) | > 50 | > 50 | 4.7 (≈ 1.82 µg/mL) | 12.5 (≈ 4.85 µg/mL) | 2.3 (≈ 0.893 µg/mL) | 1.2 (≈ 0.466 µg/mL) | 1.5 (≈ 0.582 µg/mL) | 12.5 (≈ 4.85 µg/mL) | > 50 | > 50 | > 100 | 38.3
CN1CCN(CCCOc2ncc(Nc3ncc(-c4ccc(C(F)(F)F)c(F)c4)nc3C(N)=O)cn2)CC1 | 3.1 (≈ 1.66 µg/mL) | 1.56 (≈ 0.834 µg/mL) | 1.56 (≈ 0.834 µg/mL) | 1.2 (≈ 0.641 µg/mL) | 1.56 (≈ 0.834 µg/mL) | 1.56 (≈ 0.834 µg/mL) | 1.2 (≈ 0.641 µg/mL) | 1.56 (≈ 0.834 µg/mL) | 0.2 (≈ 0.107 µg/mL) | 0.6 (≈ 0.321 µg/mL) | 0.39 (≈ 0.208 µg/mL) | 0.6 (≈ 0.321 µg/mL) | 0.78 (≈ 0.417 µg/mL) | 1.5 (≈ 0.802 µg/mL) | 12.5 (≈ 6.68 µg/mL) | 12.5 (≈ 6.68 µg/mL) | 3.46 (≈ 1.85 µg/mL) | 3.9
Brc1c(-c2ccc3c(c2)OCO3)nc2ncccn12 | 27.8 (≈ 8.84 µg/mL) | 0.2 (≈ 0.0636 µg/mL) | 0.3 (≈ 0.0954 µg/mL) | 25 (≈ 7.95 µg/mL) | 37 (≈ 11.8 µg/mL) | 4.7 (≈ 1.5 µg/mL) | 25 (≈ 7.95 µg/mL) | 37 (≈ 11.8 µg/mL) | 3.13 (≈ 0.996 µg/mL) | 25 (≈ 7.95 µg/mL) | 1.56 (≈ 0.496 µg/mL) | 2.3 (≈ 0.732 µg/mL) | 1.5 (≈ 0.477 µg/mL) | 12.5 (≈ 3.98 µg/mL) | > 50 | 50 (≈ 15.9 µg/mL) | 45.1 (≈ 14.4 µg/mL) | > 100
Cc1cnc(N2CCN[C@@H](Cc3ccccc3)C2)nc1Oc1ccc(-n2ccnc2)cc1 | 27.7 (≈ 11.8 µg/mL) | 6.25 (≈ 2.67 µg/mL) | 9.4 (≈ 4.01 µg/mL) | 25 (≈ 10.7 µg/mL) | 37 (≈ 15.8 µg/mL) | 19 (≈ 8.1 µg/mL) | 19 (≈ 8.1 µg/mL) | 37 (≈ 15.8 µg/mL) | 12.5 (≈ 5.33 µg/mL) | 37 (≈ 15.8 µg/mL) | 12.5 (≈ 5.33 µg/mL) | 50 (≈ 21.3 µg/mL) | > 50 | > 50 | > 50 | > 50 | 8.88 (≈ 3.79 µg/mL) | 14.1
COc1ccc2nc(C)cc(OCC(=O)Nc3ccccc3OC)c2c1 | 1.61 (≈ 0.567 µg/mL) | 0.05 (≈ 0.0176 µg/mL) | 0.1 (≈ 0.0352 µg/mL) | 37 (≈ 13 µg/mL) | > 50 | 2.3 (≈ 0.81 µg/mL) | 25 (≈ 8.81 µg/mL) | 50 (≈ 17.6 µg/mL) | 1.56 (≈ 0.55 µg/mL) | 25 (≈ 8.81 µg/mL) | 12.5 (≈ 4.4 µg/mL) | 2.3 (≈ 0.81 µg/mL) | > 50 | > 50 | > 50 | > 50 | > 50 | 57.4
FC(F)(F)c1nnc2ccc(Cl)nn12 | 7.75 (≈ 1.72 µg/mL) | 0.6 (≈ 0.134 µg/mL) | 1.2 (≈ 0.267 µg/mL) | 3.13 (≈ 0.697 µg/mL) | 6.25 (≈ 1.39 µg/mL) | 4.7 (≈ 1.05 µg/mL) | 3.13 (≈ 0.697 µg/mL) | 4.7 (≈ 1.05 µg/mL) | 4.7 (≈ 1.05 µg/mL) | 6.25 (≈ 1.39 µg/mL) | 4.7 (≈ 1.05 µg/mL) | 6.25 (≈ 1.39 µg/mL) | 3.12 (≈ 0.694 µg/mL) | 50 (≈ 11.1 µg/mL) | > 50 | > 50 | 6.37 (≈ 1.42 µg/mL) | > 100
Cc1nc2ccccn2c1C(=O)NCc1ccc(Cl)cc1 | 2 (≈ 0.6 µg/mL) | 0.05 (≈ 0.015 µg/mL) | 0.07 (≈ 0.021 µg/mL) | > 50 | > 50 | 4.7 (≈ 1.41 µg/mL) | 25 (≈ 7.49 µg/mL) | > 50 | 2.3 (≈ 0.689 µg/mL) | 25 (≈ 7.49 µg/mL) | 9.4 (≈ 2.82 µg/mL) | 3.13 (≈ 0.938 µg/mL) | 50 (≈ 15 µg/mL) | 50 (≈ 15 µg/mL) | > 50 | > 50 | > 100 | > 100
